Legend:
[1] = PK study and oral bioavailability, mouse; format: in vivo; details: plasma 0 to 6 h
[2] = tested on: triple negative breast cancer cell line 4T1; test: Cell-based IC50 assay, adherent cells, 4T1; details: 72 hours, CellTiter 96 Aqueous One
Protocol: (§1) In one embodiment, the IC50s of the compounds provided herein were determined in cell-based assays using adherent cells. In one embodiment, the activity of the compounds provided herein were determined in a cell-based assay using the triple negative breast cancer cell line MDA-MB-468. In one embodiment, the activity of the compounds provided herein were determined in a cell-based assay using the triple negative breast cancer cell line MDA-MB-231. In one embodiment, the activity of the compounds provided herein were determined in a cell-based assay using the triple negative breast cancer cell line 4T1.
In one embodiment, the cell-based assay may be carried out as provided herein. On day 0, cells were seeded at 20,000 cells per well in 100 μL of media into individual wells of a 96-well tissue culture plate. The next day, compounds were diluted to twice the desired final concentration and added in 100 μL of media for a final volume of 200 μL. Standard solutions for each compound were prepared at 1000× concentration in DMSO. The highest concentration was 30 mM. […] Cells were placed back in the incubator, and the absorbance at 490 nm was read after 2-3 hours. […] “Percent Viability” was determined by subtracting the average background value (media only) and expressed as a ratio to the average value obtained from cells treated with only DMSO.

[3] = tested on: triple negative breast cancer cell line MDA-MB-468; test: Cell-based IC50 assay, adherent cells, MDA-MB-468; details: Homo sapiens, 72 hours, CellTiter 96 Aqueous One, metabolically active cells decreased by 50%
Protocol: as §1
(§2) In one embodiment, the cell-based assay may be carried out as provided herein. On day 0, cells were seeded at 20,000 cells per well in 100 μL of media into individual wells of a 96-well tissue culture plate. The next day, compounds were diluted to twice the desired final concentration and added in 100 μL of media for a final volume of 200 μL. Standard solutions for each compound were prepared at 1000× concentration in DMSO. The highest concentration was […]. Serial 1:1 dilutions were made from there for a 6- or 9-point curve (e.g., 20 mM, 10 mM, 5 mM, etc). Compounds were then diluted 1:500 in media, and 100 μL of the resulting solution was added to each well for a final dilution of 1:1000. Each concentration of compound was tested in triplicate. Cells were incubated at 37° C. with 5% CO2. After 72 hours, 20 μL of CellTiter 96 Aqueous One Solution Cell Proliferation Assay (Promega) was added to each well. Cells were placed back in the incubator, and the absorbance at 490 nm was read after 2-3 hours. The concentration of compound that decreased the number of metabolically active cells by 50% was determined and reported as the IC50. “Percent Viability” was determined by subtracting the average background value (media only) and expressed as a ratio to the average value obtained from cells treated with only DMSO.
The IC50s of the compounds provided herein and some reference compounds were determined in cell-based assay using triple negative breast cancer cell line MDA-MB-468.

[4] = PK study and oral bioavailability, rat; format: in vivo; details: plasma 0 to 6 h
[5] = tested on: triple negative breast cancer cell line MDA-MB-231; test: Cell-based IC50 assay, adherent cells, MDA-MB-231; details: Homo sapiens, 72 hours, CellTiter 96 Aqueous One
Protocol: as §1, §2

[6] = tested on: m7GpppN-capped luciferase mRNA reporter; test: In vitro HeLa cell extract translation system, translation inhibition; format: biochemical; details: concentration not given
Protocol: In one embodiment, the compounds provided herein were assayed for translation inhibition activity using an in vitro HeLa cell extract translation system with an m7GpppN-capped luciferase mRNA reporter.

[7] = IV 5 mg/kg, read-out: IV Administration (5 mg/kg) C0
[8] = IV 5 mg/kg, read-out: IV Administration (5 mg/kg) T½ (converted)
[9] = PO 25 mg/kg, read-out: PO Administration (25 mg/kg) C0

Cc1c(NS(=O)(=O)c2c(C(C)C)cc(C(C)C)cc2C(C)C)cc(C(F)(F)F)cc1C(F)(F)F [Compound 2, N-[2-Methyl-3,5-bis(trifluoromethyl)phenyl]-2,4,6-triisopropyl-benzenesulfonamide]
C0 [1, 7]: 53700 ng/mL
half-life [1, 8]: 174 min
C0 [1, 9]: 3610 ng/mL
half-life ([1]; PO 25 mg/kg, read-out: PO Administration (25 mg/kg) T½ (converted)): 144 min
IC50 [2]: 5 µM
IC50 [3]: 2 µM
C0 [4, 7]: 68900 ng/mL
half-life [4, 8]: 96 min
C0 [4, 9]: 27600 ng/mL
half-life ([4]; PO 25 mg/kg, read-out: PO Administration (25 mg/kg) T½): > 360 min
IC50 [5]: 6 µM

CC(C)c1cc(C(C)C)c(S(=O)(=O)Nc2cc(C(F)(F)F)cc(C(F)(F)F)c2Cl)c(C(C)C)c1 [Compound 3, N-[2-Chloro-3,5-bis(trifluoromethyl)phenyl]-2,4,6-triisopropyl-benzenesulfonamide]
IC50 [3]: 4.5 µM
IC50 [5]: 3 µM

CC(C)c1cc(C(C)C)c(NS(=O)(=O)c2cc(C(F)(F)F)cc(C(F)(F)F)c2)c(C(C)C)c1 [Compound 4, 3,5-Bis(trifluoromethyl)-N-(2,4,6-triisopropylphenyl)benzenesulfonamide]
IC50 [3]: 12 µM

CC(C)c1cc(C(C)C)c(S(=O)(=O)Nc2cc(C(F)(F)F)cc(C(F)(F)F)c2Br)c(C(C)C)c1 [Compound 5, N-[2-Bromo-3,5-bis(trifluoromethyl)phenyl]-2,4,6-triisopropyl-benzenesulfonamide]
IC50 [3]: 5 µM

Cc1cc(C(C)(C)C)cc(C)c1S(=O)(=O)Nc1cc(C(F)(F)F)cc(C(F)(F)F)c1 [Compound 6, N-[3,5-Bis(trifluoromethyl)phenyl]-4-tert-butyl-2,6-dimethyl-benzenesulfonamide]
IC50 [3]: 7 µM

CCc1cccc(CC)c1S(=O)(=O)Nc1cc(C(F)(F)F)cc(C(F)(F)F)c1C [Compound 7, 2,6-Diethyl-N-[2-methyl-3,5-bis(trifluoromethyl)phenyl]benzenesulfonamide]
IC50 [3]: 2 µM

CCc1cccc(CC)c1S(=O)(=O)Nc1cc(C(F)(F)F)cc(C(F)(F)F)c1 [Compound 8, N-[3,5-Bis(trifluoromethyl)phenyl]-2,6-diethyl-benzenesulfonamide]
IC50 [3]: 1.5 µM

Cc1cc(C(C)(C)C)cc(C)c1S(=O)(=O)Nc1cc(C(F)(F)F)cc(C(F)(F)F)c1C [Compound 9, 4-Tert-butyl-2,6-dimethyl-N-[2-methyl-3,5-bis(trifluoromethyl)phenyl]benzenesulfonamide]
IC50 [3]: 5 µM

Cc1cc(C(C)(C)C)cc(C)c1S(=O)(=O)Nc1cc(C(F)(F)F)cc(C(F)(F)F)c1Cl [Compound 10, 4-Tert-butyl-N-[2-chloro-3,5-bis(trifluoromethyl)phenyl]-2,6-dimethyl-benzenesulfonamide]
IC50 [3]: 3 µM

O=S(=O)(Nc1cc(C(F)(F)F)cc(C(F)(F)F)c1)c1cc(C(F)(F)F)cc(C(F)(F)F)c1 [Reference compound 1]
IC50 [3]: > 20 µM

O=S(=O)(Nc1cc(C(F)(F)F)cc(C(F)(F)F)c1)c1c(Cl)cccc1Cl [Reference compound 2]
IC50 [3]: 10 µM

N#Cc1ccc(NS(=O)(=O)c2cc(C(F)(F)F)cc(C(F)(F)F)c2)cc1Cl [Reference compound 3]
IC50 [3]: > 20 µM

Cc1cc(C)c(S(=O)(=O)Nc2cc(C(F)(F)F)cc(C(F)(F)F)c2)c(C)c1 [Reference compound 4]
IC50 [3]: 17 µM

Cc1c(C)c(C)c(S(=O)(=O)Nc2cc(C(F)(F)F)cc(C(F)(F)F)c2)c(C)c1C [Reference compound 5]
IC50 [3]: > 20 µM

COc1ccc(OC)c(S(=O)(=O)Nc2cc(C(F)(F)F)cc(C(F)(F)F)c2)c1 [Reference compound 6]
IC50 [3]: > 20 µM

CC(C)c1cc(C(C)C)c(S(=O)(=O)Nc2ccc(Br)cc2)c(C(C)C)c1 [Reference compound 7]
IC50 [3]: 14 µM

Cc1ccc(C)c(NS(=O)(=O)c2c(C(C)C)cc(C(C)C)cc2C(C)C)c1 [Reference compound 8]
IC50 [3]: > 20 µM

CC(C)c1cc(C(C)C)c(S(=O)(=O)Nc2cccc(F)c2)c(C(C)C)c1 [Reference compound 9]
IC50 [3]: > 20 µM

Cc1cc(C)c(NS(=O)(=O)c2c(C(C)C)cc(C(C)C)cc2C(C)C)c(C)c1 [Reference compound 10]
IC50 [3]: > 20 µM

CC(C)c1cc(C(C)C)c(S(=O)(=O)Nc2ccccc2F)c(C(C)C)c1 [Reference compound 11]
IC50 [3]: > 20 µM

Cc1c(Cl)cccc1NS(=O)(=O)c1c(C(C)C)cc(C(C)C)cc1C(C)C [Reference compound 12]
IC50 [3]: 19 µM

CC(=O)Nc1ccc(S(=O)(=O)Nc2cc(C(F)(F)F)cc(C(F)(F)F)c2)cc1 [Reference compound 13]
IC50 [3]: > 20 µM

C[C@@H]1C[C@@H]([C@H](O)CC2CC(=O)NC(=O)C2)C(=O)[C@@H](C)C1 [cycloheximide, reference compound]
inhibition of luciferase activity (comparator) [6]: 99.3%
